Test results: ChEMBL document CHEMBL1156697, “Investigations concerning the COX/5-LOX inhibiting and hydroxyl radical scavenging potencies of novel 4,5-diaryl isoselenazoles” (Eur J Med Chem, 2008)

Legend:
[1] = molecular target: T1, Prostaglandin G/H synthase 1 (Bos taurus, UniProt O62664); experiment: Inhibition of bovine COX1
T1 sequence (O62664 whole entry): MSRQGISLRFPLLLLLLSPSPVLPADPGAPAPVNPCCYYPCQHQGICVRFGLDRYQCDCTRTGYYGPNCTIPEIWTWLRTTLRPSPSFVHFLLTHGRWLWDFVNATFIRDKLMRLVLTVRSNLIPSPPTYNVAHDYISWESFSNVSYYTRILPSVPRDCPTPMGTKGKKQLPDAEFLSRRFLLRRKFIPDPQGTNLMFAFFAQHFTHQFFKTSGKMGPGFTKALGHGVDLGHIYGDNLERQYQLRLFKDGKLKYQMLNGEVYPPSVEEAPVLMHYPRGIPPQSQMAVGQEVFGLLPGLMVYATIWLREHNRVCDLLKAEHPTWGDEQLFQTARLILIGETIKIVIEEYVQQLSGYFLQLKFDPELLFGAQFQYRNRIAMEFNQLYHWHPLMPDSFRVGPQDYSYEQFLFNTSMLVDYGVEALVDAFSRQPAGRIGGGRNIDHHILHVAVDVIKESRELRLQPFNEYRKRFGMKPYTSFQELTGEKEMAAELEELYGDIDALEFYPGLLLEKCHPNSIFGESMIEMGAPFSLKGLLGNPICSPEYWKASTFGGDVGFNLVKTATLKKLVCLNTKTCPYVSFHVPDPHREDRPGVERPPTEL

[2] = molecular target: T2, Prostaglandin G/H synthase 1 (Bos taurus) (UniProt O62664); experiment: Inhibition of bovine COX1 at 10 uM
T2 sequence (whole entry): T1 sequence (O62664 whole entry)

[3] = molecular target: T3, Prostaglandin G/H synthase 2 (Homo sapiens, UniProt P35354)
T3 sequence (P35354 whole entry): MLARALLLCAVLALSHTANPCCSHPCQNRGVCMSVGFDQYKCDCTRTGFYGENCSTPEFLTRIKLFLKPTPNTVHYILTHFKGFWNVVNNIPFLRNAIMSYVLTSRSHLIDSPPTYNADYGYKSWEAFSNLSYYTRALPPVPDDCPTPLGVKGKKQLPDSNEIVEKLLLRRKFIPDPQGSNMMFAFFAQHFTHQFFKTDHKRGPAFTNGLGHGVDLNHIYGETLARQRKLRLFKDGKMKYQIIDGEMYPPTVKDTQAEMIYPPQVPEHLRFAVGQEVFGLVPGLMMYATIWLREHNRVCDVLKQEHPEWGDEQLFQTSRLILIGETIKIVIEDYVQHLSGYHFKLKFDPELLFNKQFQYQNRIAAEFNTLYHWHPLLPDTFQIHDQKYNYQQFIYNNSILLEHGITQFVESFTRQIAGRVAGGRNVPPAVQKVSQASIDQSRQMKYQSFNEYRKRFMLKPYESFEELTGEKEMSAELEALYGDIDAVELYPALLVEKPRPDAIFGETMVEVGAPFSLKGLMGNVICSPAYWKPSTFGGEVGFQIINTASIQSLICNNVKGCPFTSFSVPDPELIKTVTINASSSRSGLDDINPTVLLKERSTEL

[4] = Inhibition of bovine 5LOX
[5] = Antioxidant activity assessed as hydroxyl radical scavenging activity at 100 uM; format: functional
[6] = molecular target: T4, Prostaglandin G/H synthase 2 (Homo sapiens) (UniProt P35354); experiment: Inhibition of human COX2 at 10 uM
T4 sequence (whole entry): T3 sequence (P35354 whole entry)

## O=c1c2ccccc2[se]n1-c1ccccc1 [EBSELEN]
[1]
  IC50: 2100 nM

## Cc1ccc(-c2cn[se]c2-c2ccc(Cl)cc2)cc1
[1]
  IC50: 200 nM

## CS(=O)(=O)c1ccc(-c2[se]ncc2-c2ccc(F)cc2)cc1
[2]
  inhibition: 38%
[3]
  IC50: 600 nM
[4]
  IC50: 8000 nM
[5]
  inhibition: 34%

## Clc1ccc(-c2cn[se]c2-c2ccc(Cl)cc2)cc1
[1]
  IC50: 200 nM

## CC1(C)Cc2c(-c3ccccc3)c(-c3ccc(Cl)cc3)c(CC(=O)O)n2C1 [LICOFELONE]
[4]
  IC50: 180 nM

## COc1ccc(-c2[se]ncc2-c2ccc(Cl)cc2)cc1
[1]
  IC50: 20 nM
[6]
  inhibition: 17%

## CC(Cc1ccc(O)c(O)c1)C(C)Cc1ccc(O)c(O)c1 (stereo unspecified) [NORDIHYDROGUAIARETIC ACID]
[2]
  inhibition: 31%
[6]
  inhibition: 10%
[4]
  IC50: 1000 nM

## COc1ccc(-c2cn[se]c2-c2ccc(Cl)cc2)cc1
[1]
  IC50: 10 nM
[6]
  inhibition: 16%

## COc1ccc(-c2cn[se]c2-c2ccc(OC)cc2)cc1
[1]
  IC50: 6 nM
[3]
  IC50: 8000 nM
[5]
  inhibition: 14%

## Cc1ccc(-c2cc(C(F)(F)F)nn2-c2ccc(S(N)(=O)=O)cc2)cc1
[5]
  inhibition: 27%

## COc1ccc(-c2[se]ncc2-c2ccc(C)cc2)cc1
[1]
  IC50: 20 nM

## Cc1ccc(-c2[se]ncc2-c2ccc(Cl)cc2)cc1
[1]
  IC50: 50 nM
